Results published in patent US7871808B2, “Isolated microorganism having an ability to produce L-histidine” (priority 1999, dated 2011).
Where a name gives a salt, the structure may show the parent alone.

Tested on: mutant strain H-9341
Assay: Comparative test of growth on agar plate culture medium containing primaquine (mutant strain)
Format: cell-based, Escherichia coli
Conditions: 150 mg/liter primaquine disodium salt in agar plate medium, 1 to 10 cells/cm^2, 33° C. for 4 days

Q: Which “Growth or non-growth of the strain on agar plate medium” value does the source give for `COc1cc(NC(C)CCCN)c2ncccc2c1` (stereo not shown) [Primaquine disodium salt, primaquine disodium salt] here?
A: The value was “+”.
